Reference: patent publication US7138361B2, “Herbicidal heterocycles” (E. I. du Pont de Nemours and Company, priority 2000, dated 2006)

Legend:
Assay type in all cases: in vivo
Sunflower = assay: Test C preemergence; details: Rate 31 g/ha, scale 0 to 100
[1] = system: common ragweed (Ambrosia elatior); assay: Test C postemergence
How it was run: (§1)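 Formulation: non-phytotoxic solvent mix incl. surfactant. Pre: applied right after planting. Post: 1–4-leaf seedlings. Read: visual 0–100, day 12–14, greenhouse.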

[2] = system: morningglory (Ipomoea hederacea); assay: Test C postemergence
How it was run: as §1

[3] = system: velvetleaf (Abutilon theophrasti); assay: Test C postemergence
How it was run: as §1

[4] = system: bermudagrass (Cynodon dactylon); assay: Test C postemergence
How it was run: as §1

soybean (Glycine max) = assay: Test C postemergence
How it was run: as §1

corn (Zea mays) = assay: Test C postemergence
How it was run: as §1

kochia (Kochia scoparia) = assay: Test C postemergence
How it was run: as §1

[5] = system: lambsquarters (Chenopodium album); assay: Test C postemergence
How it was run: as §1

[6] = system: yellow nutsedge (Cyperus esculentus); assay: Test C postemergence
How it was run: as §1

[7] = system: goosegrass (Eleusine indica); assay: Test C postemergence
How it was run: as §1

[8] = system: cocklebur (Xanthium strumarium); assay: Test C postemergence
How it was run: as §1

[9] = system: johnsongrass (Sorghum halepense); assay: Test C postemergence
How it was run: as §1

[10] = system: crabgrass (Digitaria sanguinalis); assay: Test C postemergence
How it was run: as §1

[11] = system: giant foxtail (Setaria faberii); assay: Test C postemergence
How it was run: as §1

[12] = system: pigweed (Amaranthus retroflexus); assay: Test C postemergence
How it was run: as §1

[13] = system: duck salad (Heteranthera limosa); assay: Test C flooded paddy test; details: for Ducksalad plant response rating: Flooded Paddy, scale 0 to 100, 0 no effect, 100 complete control; for Plant response rating, Ducksalad: flooded paddy test, scale 0 to 100 (0 no effect, 100 complete control)
How it was run: (§2)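 Ratings come from visual comparison with control plants after 12 to 14 days in the greenhouse. Each species was at the 2-leaf stage when the flooded paddy was treated. Scores run from 0, meaning no effect, to 100, meaning complete control.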

[14] = system: barnyardgrass (Echinochloa crus-galli); assay: Test C flooded paddy test; details: for Barnyardgrass plant response rating: Flooded Paddy, scale 0 to 100, 0 no effect, 100 complete control; for Plant response rating, Barnyardgrass: flooded paddy test, scale 0 to 100 (0 no effect, 100 complete control)
How it was run: as §2

rice (Oryza saliva) = assay: Test C flooded paddy test; details: for Rice plant response rating: Flooded Paddy, scale 0 to 100, 0 no effect, 100 complete control; for Plant response rating, Rice: flooded paddy test, scale 0 to 100 (0 no effect, 100 complete control)
How it was run: as §2

[15] = Rate 125 g/ha, scale 0 to 100, 0 no effect, 100 complete control
[16] = Rate 250 g/ha, scale 0 to 100 (0 no effect, 100 complete control)
[17] = Rate 62 g/ha, scale 0 to 100, 0 no effect, 100 complete control

SMILES: CC(C)(C)c1ccn(C2SCN(c3cccc(OC(F)F)c3)C2=O)n1 (stereo not shown) [Compound 36]
- Plant response rating, Sunflower (Sunflower): 0
- Plant response rating, Ragweed, Common ([1]; Rate 31 g/ha, scale 0 to 100): 0
- Plant response rating, Ragweed, Common [1, 15]: 0
- Plant response rating, Ragweed, Common [1, 16]: 30
- Plant response rating, Morningglory ([2]; Rate 31 g/ha, scale 0 to 100): 0
- Plant response rating, Morningglory [2, 15]: 0
- Plant response rating, Morningglory [2, 16]: 20
- Plant response rating, Velvetleaf ([3]; Rate 31 g/ha, scale 0 to 100): 0
- Plant response rating, Velvetleaf [3, 15]: 0
- Plant response rating, Velvetleaf [3, 16]: 30
- Plant response rating, Bermudagrass ([4]; Rate 31 g/ha, scale 0 to 100): 0
- Plant response rating, Bermudagrass [4, 17]: 0
- Plant response rating, Bermudagrass [4, 15]: 0
- Plant response rating, Bermudagrass [4, 16]: 70
- Plant response rating, Soybean (soybean (Glycine max); Rate 31 g/ha, scale 0 to 100): 0
- Plant response rating, Soybean (soybean (Glycine max); [15]): 0
- Plant response rating, Soybean (soybean (Glycine max); [16]): 0
- Plant response rating, Corn (corn (Zea mays); Rate 31 g/ha, scale 0 to 100): 0
- Plant response rating, Corn (corn (Zea mays); [15]): 0
- Plant response rating, Corn (corn (Zea mays); [16]): 20
- Plant response rating, Kochia (kochia (Kochia scoparia); Rate 31 g/ha, scale 0 to 100): 20
- Plant response rating, Kochia (kochia (Kochia scoparia); [15]): 70
- Plant response rating, Kochia (kochia (Kochia scoparia); [16]): 80
- Plant response rating, Lambsquarters ([5]; Rate 31 g/ha, scale 0 to 100): 50
- Plant response rating, Lambsquarters [5, 15]: 70
- Plant response rating, Lambsquarters [5, 16]: 70
- Plant response rating, Nutsedge ([6]; Rate 31 g/ha, scale 0 to 100): 0
- Plant response rating, Nutsedge [6, 15]: 0
- Plant response rating, Nutsedge [6, 16]: 30
- Plant response rating, Goosegrass ([7]; Rate 31 g/ha, scale 0 to 100): 0
- Plant response rating, Goosegrass [7, 15]: 0
- Plant response rating, Goosegrass [7, 16]: 0
- Plant response rating, Cocklebur ([8]; Rate 31 g/ha, scale 0 to 100): 0
- Plant response rating, Cocklebur [8, 15]: 0
- Plant response rating, Cocklebur [8, 16]: 0
- Plant response rating, Johnsongrass ([9]; Rate 31 g/ha, scale 0 to 100): 0
- Plant response rating, Johnsongrass [9, 15]: 0
- Plant response rating, Johnsongrass [9, 16]: 0
- Plant response rating, Crabgrass ([10]; Rate 31 g/ha, scale 0 to 100): 0
- Plant response rating, Crabgrass [10, 15]: 0
- Plant response rating, Crabgrass [10, 16]: 30
- Plant response rating, Foxtail, Giant ([11]; Rate 31 g/ha, scale 0 to 100): 0
- Plant response rating, Foxtail, Giant [11, 15]: 0
- Plant response rating, Foxtail, Giant [11, 16]: 20
- Plant response rating, Pigweed ([12]; Rate 31 g/ha, scale 0 to 100): 30
- Plant response rating, Pigweed [12, 15]: 60
- Plant response rating, Pigweed [12, 16]: 60
- Ducksalad plant response rating ([13]; Rate 250 g/ha): 100
- Ducksalad plant response rating ([13]; Rate 500 g/ha): 100
- Plant response rating, Ducksalad ([13]; Rate 62 g/ha): 80
- Plant response rating, Ducksalad ([13]; Rate 125 g/ha): 90
- Barnyardgrass plant response rating ([14]; Rate 250 g/ha): 100
- Barnyardgrass plant response rating ([14]; Rate 500 g/ha): 100
- Plant response rating, Barnyardgrass ([14]; Rate 62 g/ha): 100
- Plant response rating, Barnyardgrass ([14]; Rate 125 g/ha): 100
- Rice plant response rating (rice (Oryza saliva); Rate 250 g/ha): 90
- Rice plant response rating (rice (Oryza saliva); Rate 500 g/ha): 90
- Plant response rating, Rice (rice (Oryza saliva); Rate 62 g/ha): 30
- Plant response rating, Rice (rice (Oryza saliva); Rate 125 g/ha): 80

SMILES: O=C1C(n2ccc(C3CCC3)n2)SCN1c1cccc(C(F)(F)F)c1 (stereo not shown) [Compound 37]
- Plant response rating, Sunflower (Sunflower): 0
- Plant response rating, Ragweed, Common ([1]; Rate 31 g/ha, scale 0 to 100): 0
- Plant response rating, Ragweed, Common [1, 15]: 0
- Plant response rating, Ragweed, Common [1, 16]: 0
- Plant response rating, Morningglory ([2]; Rate 31 g/ha, scale 0 to 100): 0
- Plant response rating, Morningglory [2, 15]: 0
- Plant response rating, Morningglory [2, 16]: 0
- Plant response rating, Velvetleaf ([3]; Rate 31 g/ha, scale 0 to 100): 0
- Plant response rating, Velvetleaf [3, 15]: 0
- Plant response rating, Velvetleaf [3, 16]: 0
- Plant response rating, Bermudagrass ([4]; Rate 31 g/ha, scale 0 to 100): 0
- Plant response rating, Bermudagrass [4, 17]: 0
- Plant response rating, Bermudagrass [4, 15]: 0
- Plant response rating, Bermudagrass [4, 16]: 0
- Plant response rating, Soybean (soybean (Glycine max); Rate 31 g/ha, scale 0 to 100): 0
- Plant response rating, Soybean (soybean (Glycine max); [15]): 0
- Plant response rating, Soybean (soybean (Glycine max); [16]): 0
- Plant response rating, Corn (corn (Zea mays); Rate 31 g/ha, scale 0 to 100): 0
- Plant response rating, Corn (corn (Zea mays); [15]): 0
- Plant response rating, Corn (corn (Zea mays); [16]): 0
- Plant response rating, Kochia (kochia (Kochia scoparia); Rate 31 g/ha, scale 0 to 100): 0
- Plant response rating, Kochia (kochia (Kochia scoparia); [15]): 20
- Plant response rating, Kochia (kochia (Kochia scoparia); [16]): 70
- Plant response rating, Lambsquarters ([5]; Rate 31 g/ha, scale 0 to 100): 20
- Plant response rating, Lambsquarters [5, 15]: 20
- Plant response rating, Lambsquarters [5, 16]: 50
- Plant response rating, Nutsedge ([6]; Rate 31 g/ha, scale 0 to 100): 0
- Plant response rating, Nutsedge [6, 15]: 0
- Plant response rating, Nutsedge [6, 16]: 0
- Plant response rating, Goosegrass ([7]; Rate 31 g/ha, scale 0 to 100): 0
- Plant response rating, Goosegrass [7, 15]: 0
- Plant response rating, Goosegrass [7, 16]: 0
- Plant response rating, Cocklebur ([8]; Rate 31 g/ha, scale 0 to 100): 0
- Plant response rating, Cocklebur [8, 15]: 0
- Plant response rating, Cocklebur [8, 16]: 0
- Plant response rating, Johnsongrass ([9]; Rate 31 g/ha, scale 0 to 100): 0
- Plant response rating, Johnsongrass [9, 15]: 0
- Plant response rating, Johnsongrass [9, 16]: 0
- Plant response rating, Crabgrass ([10]; Rate 31 g/ha, scale 0 to 100): 0
- Plant response rating, Crabgrass [10, 15]: 0
- Plant response rating, Crabgrass [10, 16]: 0
- Plant response rating, Foxtail, Giant ([11]; Rate 31 g/ha, scale 0 to 100): 0
- Plant response rating, Foxtail, Giant [11, 15]: 0
- Plant response rating, Foxtail, Giant [11, 16]: 0
- Plant response rating, Pigweed ([12]; Rate 31 g/ha, scale 0 to 100): 0
- Plant response rating, Pigweed [12, 15]: 0
- Plant response rating, Pigweed [12, 16]: 0
- Ducksalad plant response rating ([13]; Rate 250 g/ha): 90
- Ducksalad plant response rating ([13]; Rate 500 g/ha): 100
- Plant response rating, Ducksalad ([13]; Rate 62 g/ha): 20
- Plant response rating, Ducksalad ([13]; Rate 125 g/ha): 80
- Barnyardgrass plant response rating ([14]; Rate 250 g/ha): 100
- Barnyardgrass plant response rating ([14]; Rate 500 g/ha): 100
- Plant response rating, Barnyardgrass ([14]; Rate 62 g/ha): 70
- Plant response rating, Barnyardgrass ([14]; Rate 125 g/ha): 100
- Rice plant response rating (rice (Oryza saliva); Rate 250 g/ha): 30
- Rice plant response rating (rice (Oryza saliva); Rate 500 g/ha): 90
- Plant response rating, Rice (rice (Oryza saliva); Rate 62 g/ha): 0
- Plant response rating, Rice (rice (Oryza saliva); Rate 125 g/ha): 0
